Reference: ChEMBL document CHEMBL3779770, “Synthesis, biological evaluation and molecular docking study of some novel indole and pyridine based 1,3,4-oxadiazole derivatives as potential antitubercular agents” (Bioorg Med Chem Lett, 2016)
≈ marks a conversion by molar mass, not a printed value.

What was measured:
Escherichia coli = test: Antibacterial activity against Escherichia coli NCIM 2688 after 8 hrs; format: functional, organism-based; details: NCIM 2688, 8 h
Pseudomonas fluorescens = test: Antibacterial activity against Pseudomonas fluorescens NCIM 2036 after 8 hrs; format: functional, organism-based; details: NCIM 2036, 8 h
Staphylococcus aureus = test: Antibacterial activity against Staphylococcus aureus NCIM 2010 after 12 hrs; format: functional, organism-based; details: NCIM 2010, 12 h
Bacillus subtilis = test: Antibacterial activity against Bacillus subtilis NCIM 2079 after 12 hrs; format: functional, organism-based; details: NCIM 2079, 12 h
[1] = system: Mycobacterium tuberculosis; test: Antitubercular activity against active state Mycobacterium tuberculosis H37Ra assessed as viable cells after 8 days by XTT reduction menadione assay; format: functional, organism-based; details: 192 h
[2] = system: Mycobacterium tuberculosis; test: Antitubercular activity against dormant state Mycobacterium tuberculosis H37Ra assessed as viable cells after 12 days by XTT reduction menadione assay; format: functional, organism-based; details: 288 h
[3] = (§1) Cytotoxicity against human HeLa cells after 72 hrs by MTT assay; format: cell-based; details: HeLa cells
HeLa = test: as §1; format: cell-based; details: hela, 72 h
[4] = (§2) Cytotoxicity against human A549 cells after 48 hrs by MTT assay; format: cell-based; details: A549 cells
A549 = test: as §2; format: cell-based; details: a549, 48 h
[5] = Cytotoxicity against human PANC1 cells after 48 hrs by MTT assay; format: cell-based, PANC-1; details: for GI50 at 48 h: PANC1 cells; for GI90: panc-1, 48 h

SMILES | IC50 (Escherichia coli) [µg/mL] | MIC (Escherichia coli) [µg/mL] | IC50 (Pseudomonas fluorescens) [µg/mL] | MIC (Pseudomonas fluorescens) [µg/mL] | IC50 (Staphylococcus aureus) [µg/mL] | MIC (Staphylococcus aureus) [µg/mL] | IC50 (Bacillus subtilis) [µg/mL] | MIC (Bacillus subtilis) [µg/mL] | IC50 [1] [µg/mL] | MIC [1] [µg/mL] | IC50 [2] [µg/mL] | MIC [2] [µg/mL] | GI50 at 72 h [3] [µg/mL] | GI90 (HeLa) [µg/mL] | GI50 at 48 h [4] [µg/mL] | GI90 (A549) [µg/mL] | GI50 at 48 h [5] [µg/mL] | GI90 [5] [µg/mL]
O=C(/C=C\c1cccc(O)c1)N1N=C(c2ccncc2)OC1c1c[nH]c2ccccc12 (configuration not stated) | 16.6 (≈ 40.6 µM) | 49.2 (≈ 120 µM) | 17.4 (≈ 42.5 µM) | 82.8 (≈ 202 µM) | 18.2 (≈ 44.5 µM) | 84.4 (≈ 206 µM) | 19.8 (≈ 48.4 µM) | 121 (≈ 295 µM) | > 30 | > 30 | > 30 | > 30 | > 30 | > 30 | > 30 | > 30 | > 30 | > 30
O=C(/C=C\c1ccc(O)cc1)N1N=C(c2ccncc2)OC1c1c[nH]c2ccccc12 (configuration not stated) | > 256 | > 256 | 45 (≈ 110 µM) | > 256 | > 256 | > 256 | > 256 | > 256 | > 30 | > 30 | > 30 | > 30 | > 30 | > 30 | > 30 | > 30 | > 30 | > 30
COc1ccc(/C=C\C(=O)N2N=C(c3ccncc3)OC2c2c[nH]c3ccccc23)cc1 (configuration not stated) | 14 (≈ 33 µM) | 182 (≈ 429 µM) | 15.7 (≈ 37 µM) | 101 (≈ 239 µM) | 7.72 (≈ 18.2 µM) | 88.1 (≈ 208 µM) | 15.7 (≈ 37 µM) | 156 (≈ 369 µM) | > 30 | > 30 | > 30 | > 30 | > 30 | > 30 | > 30 | > 30 | > 30 | > 30
O=C(/C=C\c1ccccc1Cl)N1N=C(c2ccncc2)OC1c1c[nH]c2ccccc12 (configuration not stated) | 1.73 (≈ 4.03 µM) | 27.6 (≈ 64.3 µM) | 2.53 (≈ 5.9 µM) | 25.2 (≈ 58.7 µM) | 3.33 (≈ 7.76 µM) | 29.2 (≈ 68 µM) | 4.13 (≈ 9.63 µM) | 22 (≈ 51.3 µM) | 11.6 (≈ 27.1 µM) | > 30 | > 30 | > 30 | > 30 | > 30 | > 30 | > 30 | > 30 | > 30
O=C(/C=C\c1ccc(F)cc1)N1N=C(c2ccncc2)OC1c1c[nH]c2ccccc12 (configuration not stated) | 13.6 (≈ 33 µM) | > 256 | 7.33 (≈ 17.8 µM) | > 256 | 12.9 (≈ 31.3 µM) | > 256 | 15.6 (≈ 37.8 µM) | > 256 | > 30 | > 30 | > 30 | > 30 | > 30 | > 30 | > 30 | > 30 | > 30 | > 30
O=C(/C=C\c1cccc([N+](=O)[O-])c1)N1N=C(c2ccncc2)OC1c1c[nH]c2ccccc12 (configuration not stated) | 19.2 (≈ 43.7 µM) | 174 (≈ 395 µM) | 20.9 (≈ 47.5 µM) | 55.7 (≈ 127 µM) | 21.7 (≈ 49.3 µM) | 93.2 (≈ 212 µM) | 22.4 (≈ 51 µM) | 86 (≈ 196 µM) | > 30 | > 30 | > 30 | > 30 | > 30 | > 30 | > 30 | > 30 | > 30 | > 30
O=C(/C=C\c1cccc(Br)c1)N1N=C(c2ccncc2)OC1c1c[nH]c2ccccc12 (configuration not stated) | 2.39 (≈ 5.05 µM) | 18.2 (≈ 38.6 µM) | 3.19 (≈ 6.74 µM) | 19.1 (≈ 40.2 µM) | 2.01 (≈ 4.25 µM) | 21.1 (≈ 44.5 µM) | 4.74 (≈ 10 µM) | 22.6 (≈ 47.9 µM) | > 30 | > 30 | > 30 | > 30 | > 30 | > 30 | > 30 | > 30 | > 30 | > 30
O=C(/C=C/c1c(Cl)cccc1Cl)N1N=C(c2ccncc2)OC1c1c[nH]c2ccccc12 (configuration not stated) | 14.8 (≈ 31.9 µM) | > 256 | 15.6 (≈ 33.6 µM) | > 256 | 86.8 (≈ 187 µM) | 148 (≈ 320 µM) | 19.2 (≈ 41.4 µM) | > 256 | 12.7 (≈ 27.4 µM) | > 30 | 13.7 (≈ 29.6 µM) | > 30 | > 30 | > 30 | > 30 | > 30 | > 30 | > 30
Cc1ccc(/C=C\C(=O)N2N=C(c3ccncc3)OC2c2c[nH]c3ccccc23)cc1 (configuration not stated) | 3.33 (≈ 8.15 µM) | 7.86 (≈ 19.2 µM) | 4.13 (≈ 10.1 µM) | 8.66 (≈ 21.2 µM) | 5.73 (≈ 14 µM) | 9.46 (≈ 23.2 µM) | 6.53 (≈ 16 µM) | 10.3 (≈ 25.1 µM) | > 30 | > 30 | > 30 | > 30 | > 30 | > 30 | > 30 | > 30 | > 30 | > 30
O=C(/C=C\c1cccc(Cl)c1Cl)N1N=C(c2ccncc2)OC1c1c[nH]c2ccccc12 (configuration not stated) | 5.99 (≈ 12.9 µM) | 159 (≈ 343 µM) | 6.79 (≈ 14.7 µM) | 198 (≈ 427 µM) | 7.59 (≈ 16.4 µM) | 162 (≈ 349 µM) | 8.39 (≈ 18.1 µM) | 168 (≈ 362 µM) | > 30 | > 30 | > 30 | > 30 | > 30 | > 30 | > 30 | > 30 | > 30 | > 30
O=C(/C=C\c1ccccc1)N1N=C(c2ccncc2)OC1c1c[nH]c2ccccc12 (configuration not stated) | 10.3 (≈ 26 µM) | 50.5 (≈ 128 µM) | 11.1 (≈ 28 µM) | 51.3 (≈ 130 µM) | 11.9 (≈ 30.1 µM) | 42.2 (≈ 107 µM) | 12.7 (≈ 32.1 µM) | 45.4 (≈ 115 µM) | 28.7 (≈ 72.8 µM) | > 30 | > 30 | > 30 | > 30 | > 30 | > 30 | > 30 | > 30 | > 30
O=C(/C=C\c1ccc(Cl)cc1)N1N=C(c2ccncc2)OC1c1c[nH]c2ccccc12 (configuration not stated) | > 256 | > 256 | > 256 | > 256 | > 256 | > 256 | > 256 | > 256 | > 30 | > 30 | > 30 | > 30 | > 30 | > 30 | > 30 | > 30 | > 30 | > 30
O=C(/C=C\c1ccccc1F)N1N=C(c2ccncc2)OC1c1c[nH]c2ccccc12 (configuration not stated) | 25.6 (≈ 62 µM) | > 256 | 26.4 (≈ 64 µM) | > 256 | 28.8 (≈ 69.8 µM) | 202 (≈ 489 µM) | 32 (≈ 77.5 µM) | > 256 | > 30 | > 30 | > 30 | > 30 | > 30 | > 30 | > 30 | > 30 | > 30 | > 30
O=C(/C=C\c1cccc(F)c1)N1N=C(c2ccncc2)OC1c1c[nH]c2ccccc12 (configuration not stated) | > 256 | > 256 | > 256 | > 256 | > 256 | > 256 | > 256 | > 256 | > 30 | > 30 | > 30 | > 30 | > 30 | > 30 | > 30 | > 30 | > 30 | > 30
O=C(/C=C\c1cccc(Cl)c1)N1N=C(c2ccncc2)OC1c1c[nH]c2ccccc12 (configuration not stated) | 14 (≈ 32.6 µM) | > 256 | 12.1 (≈ 28.3 µM) | > 256 | 14.5 (≈ 33.9 µM) | > 256 | 19.3 (≈ 45 µM) | > 256 | 2.54 (≈ 5.92 µM) | > 30 | > 30 | > 30 | > 30 | > 30 | > 30 | > 30 | > 30 | > 30
CC1(C)S[C@@H]2[C@H](NC(=O)[C@H](N)c3ccccc3)C(=O)N2[C@H]1C(=O)O [AMPICILLIN] | 0.086 (≈ 0.246 µM) | 1.46 (≈ 4.18 µM) | 1.87 (≈ 5.35 µM) | 4.36 (≈ 12.5 µM) | 0.42 (≈ 1.2 µM) | 1 (≈ 2.86 µM) | 3.15 (≈ 9.02 µM) | 10.3 (≈ 29.5 µM) | – | – | – | – | – | – | – | – | – | –
NC[C@H]1O[C@H](O[C@H]2[C@H](O)[C@@H](O[C@H]3O[C@H](CO)[C@@H](O)[C@H](N)[C@H]3O)[C@H](N)C[C@@H]2N)[C@H](O)[C@@H](O)[C@@H]1O [KANAMYCIN] | 0.13 (≈ 0.268 µM) | 1.62 (≈ 3.34 µM) | 0.014 (≈ 0.0289 µM) | 0.49 (≈ 1.01 µM) | > 30 | > 33 | 0.37 (≈ 0.764 µM) | 1.35 (≈ 2.79 µM) | – | – | – | – | – | – | – | – | – | –
CC(=O)O[C@H]1C(=O)[C@@]2(C)[C@H]([C@H](OC(=O)c3ccccc3)[C@]3(O)C[C@H](OC(=O)[C@H](O)[C@@H](NC(=O)c4ccccc4)c4ccccc4)C(C)=C1C3(C)C)[C@]1(OC(C)=O)CO[C@@H]1C[C@@H]2O [PACLITAXEL] | – | – | – | – | – | – | – | – | – | – | – | – | 0.005 (≈ 0.00586 µM) | 0.075 (≈ 0.0878 µM) | 0.12 (≈ 0.141 µM) | 5.88 (≈ 6.89 µM) | 0.0038 (≈ 0.00445 µM) | 0.078 (≈ 0.0913 µM)
